Experimental data: ChEMBL document CHEMBL1137678, “Comparative study of the trypanocidal activity of the methyl 1-nitrophenyl-1,2,3,4-9H-tetrahydro-beta-carboline-3-carboxylate derivatives and benznidazole using theoretical calculations and cyclic voltammetry” (Eur J Med Chem, 2009)

Assays:
[1] = Selectivity index, ratio of CC50 for mouse J774.G8 cells to IC50 for epimastigotes of Trypanosoma cruzi Y; type: functional
[2] = system: Trypanosoma cruzi; test: Antitrypanosomal activity against epimastigotes of Trypanosoma cruzi Y after 96 hrs by Neubauer haemocytometer; type: functional, organism-based
[3] = Selectivity index, ratio of CC50 for monkey LLC-MK2 cells to IC50 for epimastigotes of Trypanosoma cruzi Y; type: functional

Structure (SMILES)	Selectivity Index [1]	IC50 [2]	Selectivity Index [3]
COC(=O)[C@@H]1Cc2c([nH]c3ccccc23)[C@@H](c2cccc([N+](=O)[O-])c2)N1 (relative stereo)	35.7	22.2 µM	25.6
COC(=O)[C@@H]1Cc2c([nH]c3ccccc23)[C@H](c2ccc([N+](=O)[O-])cc2)N1 (relative stereo)	–	42.7 µM	–
COC(=O)[C@@H]1Cc2c([nH]c3ccccc23)[C@@H](c2ccc([N+](=O)[O-])cc2)N1 (relative stereo)	–	> 100 µM	–
COC(=O)[C@@H]1Cc2c([nH]c3ccccc23)[C@H](c2cccc([N+](=O)[O-])c2)N1 (relative stereo)	–	93.5 µM	–
